IC50 and inhibition data for 58 compounds are collected here from the Kinase Knowledgebase extract (Sharma et al. 2016).

The IC50 is the midpoint of a concentration-inhibition curve. A word on the inhibition: it is the share of the control response that was lost under treatment. Read a low inhibition as little suppression.

Chain of MAPK14 (human) (Q16539 whole entry, looked up): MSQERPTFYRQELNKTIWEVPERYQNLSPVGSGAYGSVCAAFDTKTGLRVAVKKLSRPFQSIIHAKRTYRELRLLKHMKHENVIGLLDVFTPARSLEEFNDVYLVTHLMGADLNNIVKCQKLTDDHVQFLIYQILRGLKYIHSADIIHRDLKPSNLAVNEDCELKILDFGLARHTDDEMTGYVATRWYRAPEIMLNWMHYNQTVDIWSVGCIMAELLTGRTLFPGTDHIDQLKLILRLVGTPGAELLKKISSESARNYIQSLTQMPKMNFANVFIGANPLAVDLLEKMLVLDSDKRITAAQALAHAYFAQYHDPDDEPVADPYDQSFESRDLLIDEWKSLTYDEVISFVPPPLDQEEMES

The first assay addresses MAPK14 (human) (UniProt Q16539). As to the kind of experiment: Inhibition of MAPK14 Kinase Activity by PHAS-I Assay.
Conditions: not given
Take `Clc1ccc(-c2n[nH]c(SCOC3CCCCO3)c2-c2ccncc2)cc1` (stereo not given): the IC50 amounted to 110 nM.

Consider `O=C(NCc1[nH]nc(-c2ccc(F)cc2)c1-c1ccncc1)c1cc(Cl)cc(Cl)c1`, for which the IC50 turned out to be 2670 nM.

Consider `CC(C)(N)Cc1[nH]nc(-c2ccc(F)cc2)c1-c1ccncc1`, for which the IC50 was 110 nM.

In the case of `CC1CCCCN1CCCNc1cc(-c2c[nH]nc2-c2ccc(F)cc2)ccn1` (stereo not given), the IC50 is 530 nM.

`CC(=O)N[C@@H](C)c1[nH]nc(-c2ccc(F)cc2)c1-c1ccncc1`: the IC50 was determined as 460 nM.

Staying with this assay, now noted: concentration not given here.
For `Cc1cccc(C)c1NC(=O)Cn1nc(-c2ccc(F)cc2)c(-c2ccncc2)c1C`, the inhibition was 83%.

Take `CCOC(=O)C(CC(C)C)NC(=O)C(=O)NCCc1[nH]nc(-c2ccc(F)cc2)c1-c1ccncc1` (stereo not given): the inhibition was 60%.

Regarding `COc1ccc(OC)c(NC(=O)NCc2[nH]nc(-c3ccc(F)cc3)c2-c2ccncc2)c1`, the inhibition turned out to be 39%.

On to `CSc1cccc(NC(=O)NCCc2[nH]nc(-c3ccc(F)cc3)c2-c2ccncc2)c1`, for which the inhibition was determined as 47%.

The compound `O=C(NCCc1[nH]nc(-c2ccc(F)cc2)c1-c1ccncc1)Nc1ccccc1-c1ccccc1` registered an inhibition of 63%.

For the compound `NC(=O)NCCc1[nH]nc(-c2ccc(F)cc2)c1-c1ccncc1`, the inhibition turned out to be 76%.

Take `Cc1c(-c2ccncc2)c(-c2ccc(F)cc2)nn1CC(=O)NC1CCCC1`: the inhibition was determined as 58%.

For the compound `Cc1c(-c2ccncc2)c(-c2ccc(F)cc2)nn1CC(=O)NC1CCSc2ccccc21` (stereo not given), the inhibition came to 76%.

As for `Cc1c(-c2ccncc2)c(-c2ccc(F)cc2)nn1CC(=O)Nc1ccccc1F`, the inhibition was 86%.

`CCS(=O)(=O)NCCCc1[nH]nc(-c2ccc(F)cc2)c1-c1ccncc1` yielded an inhibition of 95%.

`Cc1c(-c2ccncc2)c(-c2ccc(F)cc2)nn1CC(=O)Nc1ccc(C(F)(F)F)cc1` yielded an inhibition of 81%.

On to `Cc1c(-c2ccncc2)c(-c2ccc(F)cc2)nn1CC(=O)Nc1ccccc1C(C)(C)C`, for which the inhibition came out at 84%.

`Cc1c(-c2ccncc2)c(-c2ccc(F)cc2)nn1CC(=O)N[C@@H](C)c1cccc2ccccc12` came in with an inhibition of 74%.

On to `O=C(NCCCc1[nH]nc(-c2ccc(F)cc2)c1-c1ccncc1)c1cnc2ccccc2n1`, for which the inhibition is 68%.

Take `COc1ccc(NC(=O)NCCCc2[nH]nc(-c3ccc(F)cc3)c2-c2ccncc2)c(OC)c1`: the inhibition was determined as 83%.

In turn, `O=C(NCCCc1[nH]nc(-c2ccc(F)cc2)c1-c1ccncc1)c1cccnc1` registered an inhibition of 72%.

Turning to `CCCCNS(=O)(=O)c1cccc(NC(=O)Cn2nc(-c3ccc(F)cc3)c(-c3ccncc3)c2C)c1`, the inhibition amounted to 77%.

`CCOC(=O)C[C@H](NC(=O)Cn1nc(-c2ccc(F)cc2)c(-c2ccncc2)c1C)C(=O)OCC` gave an inhibition of 37%.

For `O=S(=O)(NCc1[nH]nc(-c2ccc(F)cc2)c1-c1ccncc1)c1cccc2cccnc12`, the inhibition amounted to 73%.

The compound `CCCOC(=O)NCCCc1[nH]nc(-c2ccc(F)cc2)c1-c1ccncc1` showed an inhibition of 90%.

In the case of `Cc1c(-c2ccncc2)c(-c2ccc(F)cc2)nn1CC(=O)NC1CCCCCC1`, the inhibition stood at 82%.

For `Cc1c(-c2ccncc2)c(-c2ccc(F)cc2)nn1CC(=O)Nc1cc([N+](=O)[O-])cc([N+](=O)[O-])c1`, the inhibition was determined as 90%.

`Cc1c(-c2ccncc2)c(-c2ccc(F)cc2)nn1CC(=O)N(C)CCc1ccccc1` yielded an inhibition of 32%.

Regarding `O=C(NCCCc1[nH]nc(-c2ccc(F)cc2)c1-c1ccncc1)c1ccccc1`, the inhibition was determined as 78%.

Turning to `Cc1c(-c2ccncc2)c(-c2ccc(F)cc2)nn1CC(=O)NC1CCSC1=O` (stereo not given), the inhibition was 69%.

The compound `Cc1c(-c2ccncc2)c(-c2ccc(F)cc2)nn1CC(=O)Nc1ccccc1C(=O)OC(C)C` gave an inhibition of 88%.

The compound `CC(=O)N1CCN(C(=O)Cn2nc(-c3ccc(F)cc3)c(-c3ccncc3)c2C)CC1` gave an inhibition of 81%.

`O=C(NCCCc1[nH]nc(-c2ccc(F)cc2)c1-c1ccncc1)c1ccc(F)c(F)c1F` had an inhibition of 80%.

`Cc1c(-c2ccncc2)c(-c2ccc(F)cc2)nn1CC(=O)NC(Cc1ccccc1)c1ccccc1` (stereo not given) had an inhibition of 44%.

Compound `CC(C)COC(=O)NCCCc1[nH]nc(-c2ccc(F)cc2)c1-c1ccncc1` gave an inhibition of 76%.

As for `Cc1c(-c2ccncc2)c(-c2ccc(F)cc2)nn1CC(=O)Nc1ccccc1C(=O)NC1CCCCC1`, the inhibition amounted to 87%.

Turning to `CCN1CCN(C(=O)Cn2nc(-c3ccc(F)cc3)c(-c3ccncc3)c2C)CC1`, the inhibition came out at 65%.

In turn, `Cc1cccc(C)c1NC(=O)NCCc1[nH]nc(-c2ccc(F)cc2)c1-c1ccncc1` yielded an inhibition of 56%.

With `C=CCNC(=O)NCCCc1[nH]nc(-c2ccc(F)cc2)c1-c1ccncc1`, the inhibition was determined as 87%.

For `CCc1cccc(CC)c1NC(=O)Cn1nc(-c2ccc(F)cc2)c(-c2ccncc2)c1C`, the inhibition came out at 70%.

`Cc1c(-c2ccncc2)c(-c2ccc(F)cc2)nn1CC(=O)N1CCOCC1` showed an inhibition of 70%.

In turn, `CCCCS(=O)(=O)NCCCc1[nH]nc(-c2ccc(F)cc2)c1-c1ccncc1` had an inhibition of 87%.

The compound `COCCN(C)C(=O)Cn1nc(-c2ccc(F)cc2)c(-c2ccncc2)c1C` gave an inhibition of 35%.

Turning to `Cc1c(-c2ccncc2)c(-c2ccc(F)cc2)nn1CC(=O)NC1CCCCC1C1CCCCC1` (stereo not given), the inhibition amounted to 45%.

In turn, `Cc1cccc(NC(=O)Cn2nc(-c3ccc(F)cc3)c(-c3ccncc3)c2C)c1` returned an inhibition of 86%.

On to `CCCS(=O)(=O)NCCCc1[nH]nc(-c2ccc(F)cc2)c1-c1ccncc1`, for which the inhibition is 92%.

Turning to `Cc1c(-c2ccncc2)c(-c2ccc(F)cc2)nn1CC(=O)Nc1ccccc1Oc1ccc(Cl)cc1`, the inhibition worked out at 86%.

The compound `COc1ccc(OC)c(NC(=O)Cn2nc(-c3ccc(F)cc3)c(-c3ccncc3)c2C)c1` displayed an inhibition of 85%.

The compound `COC(=O)[C@@H](Cc1cn(C)cn1)NC(=O)Cn1nc(-c2ccc(F)cc2)c(-c2ccncc2)c1C` displayed an inhibition of 19%.

`Cc1c(-c2ccncc2)c(-c2ccc(F)cc2)nn1CC(=O)NC1CCN(CCc2c[nH]c3ccccc23)CC1` came in with an inhibition of 84%.

For `Cc1c(-c2ccncc2)c(-c2ccc(F)cc2)nn1CC(=O)NCC(=O)OC(C)(C)C`, the inhibition turned out to be 34%.

On to `Cc1c(-c2ccncc2)c(-c2ccc(F)cc2)nn1CC(=O)Nc1cccc(Br)c1`, for which the inhibition stood at 88%.

Turning to `CCOC(=O)N1CCC(NC(=O)Cn2nc(-c3ccc(F)cc3)c(-c3ccncc3)c2C)CC1`, the inhibition was determined as 72%.

With `CC(C)S(=O)(=O)NCCCc1[nH]nc(-c2ccc(F)cc2)c1-c1ccncc1`, the inhibition came out at 84%.

The compound `COCC(C)NC(=O)Cn1nc(-c2ccc(F)cc2)c(-c2ccncc2)c1C` (stereo not given) had an inhibition of 60%.

The compound `Cc1c(-c2ccncc2)c(-c2ccc(F)cc2)nn1CC(=O)N(CCc1ccccc1)CCc1ccccn1` returned an inhibition of 43%.

In turn, `O=C(NCCCc1[nH]nc(-c2ccc(F)cc2)c1-c1ccncc1)c1ccno1` showed an inhibition of 80%.

In turn, `O=C(NCCCc1[nH]nc(-c2ccc(F)cc2)c1-c1ccncc1)N1CCCC1` registered an inhibition of 86%.

The target is the same in the next assay. As to the kind of experiment: Inhibition of LPS Stimulated TNF Production by U937 Cells. The conditions noted are these: concentration not given here.
Take `Cc1cccc(C)c1NC(=O)Cn1nc(-c2ccc(F)cc2)c(-c2ccncc2)c1C`: the inhibition is 18%.

In turn, `CCOC(=O)C(CC(C)C)NC(=O)C(=O)NCCc1[nH]nc(-c2ccc(F)cc2)c1-c1ccncc1` (stereo not given) showed an inhibition of 26%.

`COc1ccc(OC)c(NC(=O)NCc2[nH]nc(-c3ccc(F)cc3)c2-c2ccncc2)c1` returned an inhibition of 40%.

Regarding `CSc1cccc(NC(=O)NCCc2[nH]nc(-c3ccc(F)cc3)c2-c2ccncc2)c1`, the inhibition is 37%.

Consider `O=C(NCCc1[nH]nc(-c2ccc(F)cc2)c1-c1ccncc1)Nc1ccccc1-c1ccccc1`, for which the inhibition came out at 35%.

The compound `NC(=O)NCCc1[nH]nc(-c2ccc(F)cc2)c1-c1ccncc1` came in with an inhibition of 60%.

Regarding `Cc1c(-c2ccncc2)c(-c2ccc(F)cc2)nn1CC(=O)NC1CCCC1`, the inhibition worked out at 36%.
